Measurements as given in paper PMC6627510, “The Role of a Key Amino Acid Position in Species-Specific Proteinaceous dUTPase Inhibition” (Biomolecules, 2019).

Key:
Assay type in all cases: binding
[1] = molecular target: T1, E. coli dUTPase (EcDUT) (Escherichia coli, UniProt P06968, F146W, form not given); assay: tryptophan fluorescence; acrylamide quenching; details: 3 µM enzyme, 100 µM dUPNPP, 5 mM MgCl2, pH 7.5, 293 K; active site; quenching with 4 µM enzyme, 1.5 mM dUPNPP
T1 construct: gene dut; expressed in E. coli BL21(DE3) Rosetta; homotrimer; C-terminal residues R150, Q151

[2] = molecular target: T2, E. coli dUTPase (EcDUT) (Escherichia coli, UniProt P06968, Q94R/F146W, form not given); assay: tryptophan fluorescence; details: 3 µM enzyme, 100 µM dUPNPP, 5 mM MgCl2, pH 7.5, 293 K; active site
T2 construct: gene dut; expressed in E. coli BL21(DE3) Rosetta; homotrimer; C-terminal residues R150, Q151

[3] = molecular target: T3, E. coli dUTPase (EcDUT) (Escherichia coli, UniProt P06968, Q94H, form not given); assay: X-ray crystallography, […] Å; details: 5 mM dUPNPP, Mg2+, pH 7.5; active site; non-hydrolysable substrate analogue
T3 construct: gene dut; expressed in E. coli BL21(DE3) Rosetta; homotrimer; C-terminal residues R150, Q151

[4] = molecular target: T4, E. coli dUTPase (EcDUT) (Escherichia coli, UniProt P06968, Q94H/F146W, form not given); assay: tryptophan fluorescence; acrylamide quenching; details: 3 µM enzyme, 100 µM dUPNPP, 5 mM MgCl2, pH 7.5, 293 K; active site; quenching with 4 µM enzyme, 1.5 mM dUPNPP
T4 construct: gene dut; expressed in E. coli BL21(DE3) Rosetta; homotrimer; C-terminal residues R150, Q151

O=c1ccn([C@H]2C[C@H](O)[C@@H](COP(=O)(O)NP(=O)(O)OP(=O)(O)O)O2)c(=O)[nH]1 [dUPNPP]
tryptophan fluorescence; acrylamide quenching [1]: allowed us to follow substrate analogue and Stl binding of the three arm-tryptophan mutant enzyme
tryptophan fluorescence [2]: allowed us to follow substrate analogue and Stl binding of the three arm-tryptophan mutant enzyme
X-ray crystallography, 1.8 Å [3]: we crystallized the EcDUT^Q93H dUTPase mutant in the presence of the non-hydrolysable substrate analogue dUPNPP
tryptophan fluorescence; acrylamide quenching [4]: allowed us to follow substrate analogue and Stl binding of the three arm-tryptophan mutant enzyme
